Data as given in PubChem BioAssay AID1963875 (Molecular Pharmacology Branch, DTP, NCI, 2024).

Tested on: KRAS-mutant PDC complex spheroid viability
Assay: Anticancer human tumor 186277-243-T-J2-PDC patient-derived colon adenocarcinoma cell line growth inhibition [KRAS2]
Conditions: for IC50: curve of first compound; for viability, T/C: stronger effect = lower value
Summary of the method: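 Combination screen of spheroid viability in tumor-cell co-cultures with endothelial (HUVEC) and mesenchymal stem cell stroma. Each agent was tested in half-log dilutions, topping at clinical Cmax or at 10 microM without a known Cmax.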

[1] = second compound 0.1 µM, first compound 0.0316 µM
[2] = second compound 0.1 µM, first compound 0.1 µM
[3] = second compound 0.1 µM, first compound 0.316 µM
[4] = second compound 0.1 µM, first compound 1 µM
[5] = second compound 0.1 µM, first compound 3.16 µM
[6] = second compound 0.316 µM, first compound 0.0316 µM
[7] = second compound 0.316 µM, first compound 0.1 µM
[8] = second compound 0.316 µM, first compound 0.316 µM
[9] = second compound 0.316 µM, first compound 1 µM
[10] = second compound 0.316 µM, first compound 3.16 µM
[11] = second compound 1 µM, first compound 0.0316 µM
[12] = second compound 1 µM, first compound 0.1 µM
[13] = second compound 1 µM, first compound 0.316 µM
[14] = second compound 1 µM, first compound 1 µM
[15] = second compound 1 µM, first compound 3.16 µM
[16] = second compound 3.16 µM, first compound 0.0316 µM
[17] = second compound 3.16 µM, first compound 0.1 µM
[18] = second compound 3.16 µM, first compound 0.316 µM
[19] = second compound 3.16 µM, first compound 1 µM
[20] = second compound 3.16 µM, first compound 3.16 µM
[21] = second compound 10 µM, first compound 0.0316 µM
[22] = second compound 10 µM, first compound 0.1 µM
[23] = second compound 10 µM, first compound 0.316 µM
[24] = second compound 10 µM, first compound 1 µM
[25] = second compound 10 µM, first compound 3.16 µM
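For viability, T/C in this document: viability read after seven days of compound exposure; 100% = DMSO vehicle-treated spheroids so lower means less viable.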

`Cn1nccc1Nc1nccc(-c2cc3c(s2)C(C)(C)N(CCN2CCOCC2)C3=O)n1` + CC1OCC2(CCN(c3cnc(Sc4ccnc(N)c4Cl)c(N)n3)CC2)C1N showed an IC50 (second compound 0.1 µM) of 306 nM, an IC50 (second compound 0.316 µM) of 219 nM and an IC50 (second compound 1 µM) of 224 nM. The IC50 (second compound 3.16 µM) was 176 nM, the IC50 (second compound 10 µM) was 77.4 nM and the viability, T/C [1] was 106%. It also gave a viability, T/C [2] of 107%, a viability, T/C [3] of 48.3% and a viability, T/C [4] of 9.06%. The viability, T/C [5] was 4.04%, the viability, T/C (second compound 0.1 µM, first compound 10 µM) was 5.66% and the viability, T/C [6] was 104%. For the same molecule, the viability, T/C [7] was 114%, the viability, T/C [8] was 22.5% and the viability, T/C [9] was 7.68%. The viability, T/C [10] was 2.95%, the viability, T/C (second compound 0.316 µM, first compound 10 µM) was 4.77% and the viability, T/C [11] was 106%. For the same molecule, the viability, T/C [12] was 114%, the viability, T/C [13] was 24.3% and the viability, T/C [14] was 4.22%. For the same molecule, the viability, T/C [15] was 2.3%, the viability, T/C (second compound 1 µM, first compound 10 µM) was 3.66% and the viability, T/C [16] was 118%. It also gave a viability, T/C [17] of 85.6%, a viability, T/C [18] of 13% and a viability, T/C [19] of 2.81%. For the same molecule, the viability, T/C [20] was 1.49%, the viability, T/C (second compound 3.16 µM, first compound 10 µM) was 2.19% and the viability, T/C [21] was 86.8%. For the same molecule, the viability, T/C [22] was 39.5%, the viability, T/C [23] was 5.87% and the viability, T/C [24] was 2.69%. For the same molecule, the viability, T/C [25] was 1.11% and the viability, T/C (second compound 10 µM, first compound 10 µM) was 1.69%.

`CC(=O)OC12COC1CC(O)C1(C)C(=O)C(O)C3=C(C)C(OC(=O)C(O)C(NC(=O)OC(C)(C)C)c4ccccc4)CC(O)(C(OC(=O)c4ccccc4)C21)C3(C)C` (stereo not given) + CNCc1ccccc1-c1csc(C(C)Nc2nc(C)nc3cc(OC)c(OC)cc23)c1 was tested, and the IC50 (second compound 0.1 µM) was < 10 nM, the IC50 (second compound 0.316 µM) was < 10 nM and the IC50 (second compound 1 µM) was < 10 nM. The IC50 (second compound 3.16 µM) was < 10 nM, the IC50 (second compound 10 µM) was < 10 nM and the viability, T/C (second compound 0.1 µM, first compound 0.01 µM) was 4.85%. It also gave a viability, T/C [1] of 2.89%, a viability, T/C [2] of 2.72% and a viability, T/C [3] of 2.61%. The viability, T/C [4] was 2.94%, the viability, T/C [5] was 3.13% and the viability, T/C (second compound 0.316 µM, first compound 0.01 µM) was 4.19%. The viability, T/C [6] was 2.44%, the viability, T/C [7] was 2.68% and the viability, T/C [8] was 2.5%. It also gave a viability, T/C [9] of 2.71%, a viability, T/C [10] of 3.02% and a viability, T/C (second compound 1 µM, first compound 0.01 µM) of 4.69%. For the same molecule, the viability, T/C [11] was 3.7%, the viability, T/C [12] was 3.39% and the viability, T/C [13] was 3.25%. For the same molecule, the viability, T/C [14] was 3.43%, the viability, T/C [15] was 3.79% and the viability, T/C (second compound 3.16 µM, first compound 0.01 µM) was 6.31%. For the same molecule, the viability, T/C [16] was 0.05%, the viability, T/C [17] was 0.02% and the viability, T/C [18] was 0.03%. For the same molecule, the viability, T/C [19] was 0.05%, the viability, T/C [20] was 3% and the viability, T/C (second compound 10 µM, first compound 0.01 µM) was 0.13%. The viability, T/C [21] was 0.1%, the viability, T/C [22] was 0.08% and the viability, T/C [23] was 0.33%. For the same molecule, the viability, T/C [24] was 3.35% and the viability, T/C [25] was 0.58%.
